Data: paper PMC6770510, “In Vitro Production and Identification of Angiotensin Converting Enzyme (ACE) Inhibitory Peptides Derived from Distilled Spent Grain Prolamin Isolate” (Foods, 2019)
Residues, ends and D or L forms follow the SMILES beside them.

Each compound was assayed against T1, angiotensin converting enzyme (ACE) (Homo sapiens, UniProt P12821) (assay: ACE inhibitory activity, colorimetric detection system (ACE kit-WST)). Conditions: synthetic peptides; mean ± SD, n = 3; read-out: IC50 (μM) for ACE of corresponding synthetic peptides.
T1 construct: purchased Dojindo Inc., Kumamoto, Japan ACE kit-WST
T1 sequence (P12821 30-1306, species assumed): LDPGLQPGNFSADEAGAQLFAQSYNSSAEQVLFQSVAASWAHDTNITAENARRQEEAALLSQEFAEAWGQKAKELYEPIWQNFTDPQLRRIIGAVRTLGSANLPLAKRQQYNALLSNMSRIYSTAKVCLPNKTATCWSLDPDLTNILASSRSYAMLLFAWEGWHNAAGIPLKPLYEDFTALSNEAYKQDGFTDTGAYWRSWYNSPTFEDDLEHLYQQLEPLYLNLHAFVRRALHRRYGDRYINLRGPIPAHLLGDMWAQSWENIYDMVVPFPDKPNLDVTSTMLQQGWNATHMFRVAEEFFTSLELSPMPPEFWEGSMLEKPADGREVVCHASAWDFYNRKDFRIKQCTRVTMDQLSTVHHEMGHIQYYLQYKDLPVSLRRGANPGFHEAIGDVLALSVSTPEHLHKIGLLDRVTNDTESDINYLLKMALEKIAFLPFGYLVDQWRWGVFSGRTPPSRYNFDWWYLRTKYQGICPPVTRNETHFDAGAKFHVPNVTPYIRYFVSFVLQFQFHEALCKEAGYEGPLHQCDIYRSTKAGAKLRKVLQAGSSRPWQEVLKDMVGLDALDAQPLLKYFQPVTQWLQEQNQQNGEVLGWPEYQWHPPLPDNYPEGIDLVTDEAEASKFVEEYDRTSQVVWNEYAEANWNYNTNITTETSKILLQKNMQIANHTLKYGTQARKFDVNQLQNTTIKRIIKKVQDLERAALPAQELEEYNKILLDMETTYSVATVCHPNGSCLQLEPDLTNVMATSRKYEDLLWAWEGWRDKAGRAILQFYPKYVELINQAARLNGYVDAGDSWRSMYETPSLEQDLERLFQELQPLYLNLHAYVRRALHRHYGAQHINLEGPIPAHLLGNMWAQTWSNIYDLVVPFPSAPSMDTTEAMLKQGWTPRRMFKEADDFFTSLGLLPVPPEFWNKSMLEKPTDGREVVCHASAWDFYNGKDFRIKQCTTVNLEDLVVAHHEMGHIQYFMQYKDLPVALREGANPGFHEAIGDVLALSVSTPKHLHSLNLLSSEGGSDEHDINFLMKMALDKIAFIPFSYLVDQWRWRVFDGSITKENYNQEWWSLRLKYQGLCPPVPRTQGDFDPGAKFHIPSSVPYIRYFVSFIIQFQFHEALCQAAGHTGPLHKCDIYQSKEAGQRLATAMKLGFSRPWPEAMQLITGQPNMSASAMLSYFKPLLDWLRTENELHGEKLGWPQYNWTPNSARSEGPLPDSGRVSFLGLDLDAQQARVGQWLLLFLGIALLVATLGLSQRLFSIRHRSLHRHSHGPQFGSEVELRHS
Type: biochemical
Protocol: The ACE inhibitory activity was determined following the method as previously described, using the colorimetric detection system (ACE kit-WST, Dojindo Inc., Kumamoto, Japan). The assay procedure was consistent with the technical manual provided by the assay kit. Briefly, 20 µL of sample solution was added to a sample well, and 20 µL of deionized water was added to blank 1 and blank 2 wells. 20 µL of substrate buffer was added to each well. 20 µL of deionized water was added to blank 2 well, while 20 µL of enzyme working solution was added to each sample and blank 1 wells. All wells containing above solutions were incubated at 37 °C for 1 h. Afterwards, 200 µL of the indicator working solution was added to each well with further incubation for 10 min. Then, the absorbance was recorded at 450 nm using a microplate reader (Cytation 3, BioTek Instruments, Inc., Winooski, VT, USA). The ACE inhibitory activity was calculated using the equation (1) ACE inhibitory activity (inhibition rate %) = Ablank1− Asample/Ablank1− Ablank2 × 100% where Ablank1 represented positive control (without ACE inhibition); Ablank2 was the absorbance of the reagent blank, while Asample was the absorbance of the sample. The concentration inducing 50% inhibition (IC50) of peptides and some samples were also determined with non-linear regression.

In order of falling IC50:
1. CC(C)C[C@H](NC(=O)[C@H](CO)NC(=O)[C@@H]1CCCN1C(=O)[C@H](CC(C)C)NC(=O)[C@@H](N)C(C)C)C(=O)N[C@@H](CC(N)=O)C(=O)O [VLPSLN] (H-VLPSLN-OH)  1246 ± 9.92 µM
2. CC(C)C[C@H](NC(=O)[C@H](CCC(N)=O)NC(=O)[C@@H](N)CC(N)=O)C(=O)O [NQL] (H-Asn-Gln-Leu-OH)  705 ± 16.1 µM
3. CC(C)C[C@H](NC(=O)[C@@H](NC(=O)[C@@H]1CCCN1C(=O)[C@H](CC(C)C)NC(=O)[C@@H](N)C(C)C)C(C)C)C(=O)N[C@@H](CO)C(=O)O [VLPVLS] (H-VLPVLS-OH)  248 ± 7.15 µM
4. CC(C)C[C@H](NC(=O)[C@H](Cc1ccc(O)cc1)NC(=O)[C@H](C)N)C(=O)N[C@@H](CCC(N)=O)C(=O)O [AYLQ] (H-AYLQ-OH)  229 ± 9.63 µM
5. NC(=O)CC[C@H](NC(=O)[C@@H]1CCCN1C(=O)[C@@H](N)Cc1ccc(O)cc1)C(=O)O [YPQ] (H-Tyr-Pro-Gln-OH)  220 ± 9.56 µM
6. CC(C)[C@H](NC(=O)[C@H](C)N)C(=O)N[C@@H](CCC(N)=O)C(=O)O [AVQ] (H-Ala-Val-Gln-OH)  181 ± 6.17 µM
